Results from patent US9783532B2, “Molecules having certain pesticidal utilities, and intermediates, compositions, and processes related thereto” (Dow AgroSciences LLC, priority 2013, dated 2017).

Legend:
Type in all cases: in vivo
[1] = test system: Beet Armyworm (Spodoptera exigua) ("BAW"); assay: Bioassay on beet armyworm (BAW), 128-well diet tray assay; conditions: 168 h, 50 μg/cm^2 on artificial diet, second instar BAW larvae, 25° C., five to seven days, average of eight wells, read-out: BAW % Control (or Mortality) rating
In short: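 Percent mortality, averaged across eight wells, was read after five to seven days at 25° C. under 14:10 light-dark. Each well held one to five second-instar larvae on artificial diet that had been treated with 50 μg/cm^2 compound in 90:10 acetone-water and dried.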

[2] = test system: Yellow Fever Mosquito "YFM" (Aedes aegypti); conditions: about 1 day-old larvae, 96-well plate, room temperature, 3 days, mortality
In short: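 About 1 day-old Aedes aegypti larvae in liver-powder water added to wells holding compound diluted from 4000 ppm DMSO stock with 90:10 water:acetone, 6 replicate plates. Plates kept covered at room temperature for 3 days. Wells scored for mortality and reported as rating categories.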

[3] = test system: Cabbage Looper (Trichoplusia ni) ("CL"); assay: Bioassay on cabbage looper (CL), 128-well diet tray assay; conditions: 168 h, 50 μg/cm^2 on artificial diet, second instar CL larvae, 25° C., five to seven days, average of eight wells, read-out: CL % Control (or Mortality) rating
In short: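 Percent mortality, averaged across eight replicate wells, was read after five to seven days at 25 °C under a 14:10 photoperiod. Each well held one to five second-instar T. ni on diet carrying a dried 50 μg/cm^2 dose applied in acetone-water 90:10.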

COc1ccc(N2C(=O)CS/C2=N\C(=O)NC(C)Cc2ccc(-c3ncn(-c4ccc(OC(F)(F)F)cc4)n3)cc2)c(C)c1 (stereo not drawn) [P45, (Z)-1-(3-(4-methoxy-2-methylphenyl)-4-oxothiazolidin-2-ylidene)-3-(1-(4-(1-(4-(trifluoromethoxy)phenyl)-1H-1,2,4-triazol-3-yl)phenyl)propan-2-yl)urea]
mortality at 50 µg/cm2 [1]: 50 to 100% | YFM % Control (or Mortality) rating [2]: A (80-100) | mortality at 50 µg/cm2 [3]: 50 to 100%

COc1cc(C)c(N2C(=O)CS/C2=N\C(=O)NCCc2ccc(-c3ncn(-c4ccc(OC(F)(F)F)cc4)n3)cc2)c(C)c1 [P47, (Z)-1-(3-(4-methoxy-2,6-dimethylphenyl)-4-oxothiazolidin-2-ylidene)-3-(4-(1-(4-(trifluoromethoxy)phenyl)-1H-1,2,4-triazol-3-yl)phenethyl)urea]
mortality at 50 µg/cm2 [1]: 50 to 100% | YFM % Control (or Mortality) rating [2]: A (80-100) | mortality at 50 µg/cm2 [3]: 50 to 100%

CCc1ccc(C)cc1N1C(=O)CS/C1=N\C(=O)NCCc1ccc(-c2ncn(-c3ccc(OC(F)(F)F)cc3)n2)cc1 [P49, (Z)-1-(3-(2-ethyl-5-methylphenyl)-4-oxothiazolidin-2-ylidene)-3-(4-(1-(4-(trifluoromethoxy)phenyl)-1H-1,2,4-triazol-3-yl)phenethyl)urea]
mortality at 50 µg/cm2 [1]: 50 to 100% | YFM % Control (or Mortality) rating [2]: A (80-100) | mortality at 50 µg/cm2 [3]: 50 to 100%

CCc1cccc(C)c1N1C(=O)CS/C1=N\C(=O)NCCc1ccc(-c2ncn(-c3ccc(OC(F)(F)F)cc3)n2)cc1 [P50]
mortality at 50 µg/cm2 [1]: 50 to 100% | YFM % Control (or Mortality) rating [2]: A (80-100) | mortality at 50 µg/cm2 [3]: 50 to 100%

COc1ccc(C(C)C)c(N2C(=O)CS/C2=N\C(=O)NCCc2ccc(-c3ncn(-c4ccc(C(F)(F)F)cc4)n3)cc2)c1 [P53, (Z)-1-(3-(2-isopropyl-5-methoxyphenyl)-4-oxothiazolidin-2-ylidene)-3-(4-(4-(1-(4-trifluoromethyl)phenyl)-1H-1,2,4-triazol-3-yl)phenethyl)urea]
mortality at 50 µg/cm2 [1]: 50 to 100% | YFM % Control (or Mortality) rating [2]: A (80-100) | mortality at 50 µg/cm2 [3]: 50 to 100%

Cc1ccc(C(C)C)c(N2C(=O)C(C)S/C2=N\C(=O)NCCc2ccc(-c3ncn(-c4ccc(OC(F)(F)F)cc4)n3)cc2)c1 (stereo not drawn) [P57, (Z)-1-(3-(2-isopropyl-5-methylphenyl)-5-methyl-4-oxothiazolidin-2-ylidene)-3-(4-(1-(4-(trifluoromethoxy)phenyl)-1H-1,2,4-triazol-3-yl)phenethyl)urea]
mortality at 50 µg/cm2 [1]: 50 to 100% | YFM % Control (or Mortality) rating [2]: A (80-100) | mortality at 50 µg/cm2 [3]: 50 to 100%

Cc1ccc(C(C)C)c(-n2c(C)cs/c2=N\C(=O)NCCc2ccc(-c3ncn(-c4ccc(OC(F)(F)F)cc4)n3)cc2)c1 [P65, (Z)-1-(3-(2-isopropyl-5-methylphenyl)-4-methylthiazol-2(3H)-ylidene)-3-(4-(1-(4-(trifluoromethoxy)phenyl)-1H-1,2,4-triazol-3-yl)phenethyl)urea]
mortality at 50 µg/cm2 [1]: 50 to 100% | YFM % Control (or Mortality) rating [2]: A (80-100) | mortality at 50 µg/cm2 [3]: 50 to 100%

Cc1ccc(C(C)C)c(N2C(=O)CS/C2=N\C(=O)NC(C)C(C)c2ccc(-c3ncn(-c4ccc(OC(F)(F)F)cc4)n3)cc2)c1 (stereo not drawn) [P66, P353, (Z)-1-(3-(2-isopropyl-5-methylphenyl)-4-oxothiazolidin-2-ylidene)-3-(3-(4-(1-(4-(trifluoromethoxy)phenyl)-1H-1,2,4-triazol-3-yl)phenyl)butan-2-yl)urea]
mortality at 50 µg/cm2 [1]: 50 to 100% | YFM % Control (or Mortality) rating [2]: A (80-100) | mortality at 50 µg/cm2 [3]: 50 to 100%

CCc1cccc(C)c1N1C(=O)CS/C1=N\C(=O)NCCCc1ccc(-c2ncn(-c3ccc(OC(F)(F)F)cc3)n2)cc1 [P101, (Z)-1-(3-(2-ethyl-6-methylphenyl)-4-oxothiazolidin-2-ylidene)-3-(3-(4-(1-(4-(trifluoromethoxy)phenyl)-1H-1,2,4-triazol-3-yl)phenyl)propyl)urea]
mortality at 50 µg/cm2 [1]: 0 to 50% | YFM % Control (or Mortality) rating [2]: D (No activity noticed in this bioassay) | mortality at 50 µg/cm2 [3]: 50 to 100%

Cc1ccccc1N1C(=O)CS/C1=N\C(=O)NCCCCc1ccc(-c2ncn(-c3ccc(OC(F)(F)F)cc3)n2)cc1 [P144, (Z)-1-(4-oxo-3-(o-tolyl)thiazolidin-2-ylidene)-3-(4-(4-(1-(4-(trifluoromethoxy)phenyl)-1H-1,2,4-triazol-3-yl)phenyl)butyl)urea]
mortality at 50 µg/cm2 [1]: 50 to 100% | YFM % Control (or Mortality) rating [2]: A (80-100) | mortality at 50 µg/cm2 [3]: 50 to 100%

CC(C)c1ccccc1N1C(=O)CS/C1=N\C(=O)NCCCCc1ccc(-c2ncn(-c3ccc(OC(F)(F)F)cc3)n2)cc1 [P146, P208, (Z)-1-(3-(2-isopropylphenyl)-4-oxothiazolidin-2-ylidene)-3-(4-(4-(1-(4-(trifluoromethoxy)phenyl)-1H-1,2,4-triazol-3-yl)phenyl)butyl)urea]
mortality at 50 µg/cm2 [1]: 50 to 100% | YFM % Control (or Mortality) rating [2]: A (80-100) | mortality at 50 µg/cm2 [3]: 50 to 100%

CCCc1ccc(C)cc1N1C(=O)CS/C1=N\C(=O)NCCCCc1ccc(-c2ncn(-c3ccc(OC(F)(F)F)cc3)n2)cc1 [P151, P842, (Z)-1-(3-(5-methyl-2-propylphenyl)-4-oxothiazolidin-2-ylidene)-3-(4-(4-(1-(4-(trifluoromethoxy)phenyl)-1H-1,2,4-triazol-3-yl)phenyl)butyl)urea]
mortality at 50 µg/cm2 [1]: 50 to 100% | YFM % Control (or Mortality) rating [2]: A (80-100) | mortality at 50 µg/cm2 [3]: 50 to 100%

Cc1cccc(C)c1N1C(=O)CS/C1=N\C(=O)NCCCCc1ccc(-c2ncn(-c3ccc(OC(F)(F)F)cc3)n2)cc1 [P152, P1481, (Z)-1-(3-(2,6-dimethylphenyl)-4-oxothiazolidin-2-ylidene)-3-(4-(4-(1-(4-(trifluoromethoxy)phenyl)-1H-1,2,4-triazol-3-yl)phenyl)butyl)urea]
mortality at 50 µg/cm2 [1]: 0% | YFM % Control (or Mortality) rating [2]: A (80-100) | mortality at 50 µg/cm2 [3]: 50 to 100%

CCc1cccc(C)c1N1C(=O)CS/C1=N\C(=O)NCCCCc1ccc(-c2ncn(-c3ccc(OC(F)(F)F)cc3)n2)cc1 [P153, (Z)-1-(3-(2-ethyl-6-methylphenyl)-4-oxothiazolidin-2-ylidene)-3-(4-(4-(1-(4-(trifluoromethoxy)phenyl)-1H-1,2,4-triazol-3-yl)phenyl)butyl)urea]
mortality at 50 µg/cm2 [1]: 0% | YFM % Control (or Mortality) rating [2]: D (No activity noticed in this bioassay) | mortality at 50 µg/cm2 [3]: 50 to 100%

Cc1ccc(N2C(=O)CS/C2=N\C(=O)NCCCCc2ccc(-c3ncn(-c4ccc(OC(F)(F)F)cc4)n3)cc2)c(C(C)C)c1 [P154, (Z)-1-(3-(2-isopropyl-4-methylphenyl)-4-oxothiazolidin-2-ylidene)-3-(4-(4-(1-(4-(trifluoromethoxy)phenyl)-1H-1,2,4-triazol-3-yl)phenyl)butyl)urea]
mortality at 50 µg/cm2 [1]: 50 to 100% | YFM % Control (or Mortality) rating [2]: B (More than 0-Less than 80) | mortality at 50 µg/cm2 [3]: 50 to 100%

CC(C)c1cc(F)ccc1N1C(=O)CS/C1=N\C(=O)NCCCCc1ccc(-c2ncn(-c3ccc(OC(F)(F)F)cc3)n2)cc1 [P155. P1162, (Z)-1-(3-(4-fluoro-2-isopropylphenyl)-4-oxothiazolidin-2-ylidene)-3-(4-(4-(1-(4-(trifluoromethoxy)phenyl)-1H-1,2,4-triazol-3-yl)phenyl)butyl)urea]
mortality at 50 µg/cm2 [1]: 50 to 100% | YFM % Control (or Mortality) rating [2]: A (80-100) | mortality at 50 µg/cm2 [3]: 50 to 100%
